Data reported in PubChem BioAssay (NCI).
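Interpolation was linear, between the two tested concentrations surrounding the appropriate level; five concentrations were tested over 48 hours in 96-well plates. GI50 marks 50% less growth. At the TGI there is no net growth.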

Key:
Assay in all cases: NCI anticancer screen, dose series, 48 h
HT29 colon = tested on: HT29 colon
SF-539 CNS = tested on: SF-539 CNS
TK-10 renal = tested on: TK-10 renal
OVCAR-4 ovarian = tested on: OVCAR-4 ovarian
MDA-MB-435 = tested on: MDA-MB-435
SK-MEL-28 melanoma = tested on: SK-MEL-28 melanoma
HCT-15 colon = tested on: HCT-15 colon
CCRF-CEM leukemia = tested on: CCRF-CEM leukemia
SN12C renal = tested on: SN12C renal
NCI-H226 lung = tested on: NCI-H226 lung
OVCAR-5 ovarian = tested on: OVCAR-5 ovarian
COLO 205 colon = tested on: COLO 205 colon
IGROV1 ovarian = tested on: IGROV1 ovarian
HOP-92 NSCLC = tested on: HOP-92 NSCLC
BT-549 breast = tested on: BT-549 breast
SF-295 CNS = tested on: SF-295 CNS
PC-3 prostate = tested on: PC-3 prostate
RPMI-8226 leukemia = tested on: RPMI-8226 leukemia
DU-145 prostate = tested on: DU-145 prostate
A498 renal = tested on: A498 renal
SNB-75 CNS = tested on: SNB-75 CNS
KM12 colon = tested on: KM12 colon
NCI-H522 lung = tested on: NCI-H522 lung
A549 NSCLC = tested on: A549 NSCLC
LOX IMVI melanoma = tested on: LOX IMVI melanoma
HS 578T breast = tested on: HS 578T breast
RXF 393 renal = tested on: RXF 393 renal
NCI-H23 lung = tested on: NCI-H23 lung
UACC-62 melanoma = tested on: UACC-62 melanoma
NCI/ADR-RES ovarian = tested on: NCI/ADR-RES ovarian
ACHN renal = tested on: ACHN renal
SF-268 CNS = tested on: SF-268 CNS
MCF7 breast = tested on: MCF7 breast
EKVX NSCLC = tested on: EKVX NSCLC
SK-MEL-5 melanoma = tested on: SK-MEL-5 melanoma
NCI-H460 lung = tested on: NCI-H460 lung
U251 CNS = tested on: U251 CNS
OVCAR-8 ovarian = tested on: OVCAR-8 ovarian
UO-31 renal = tested on: UO-31 renal
CAKI-1 renal = tested on: CAKI-1 renal
MDA-MB-231 breast = tested on: MDA-MB-231 breast
SR leukemia = tested on: SR leukemia
K-562 leukemia = tested on: K-562 leukemia
SK-MEL-2 melanoma = tested on: SK-MEL-2 melanoma
SNB-19 CNS = tested on: SNB-19 CNS
MALME-3M melanoma = tested on: MALME-3M melanoma
M14 melanoma = tested on: M14 melanoma
HL-60(TB) leukemia = tested on: HL-60(TB) leukemia
MOLT-4 leukemia = tested on: MOLT-4 leukemia
SK-OV-3 ovarian = tested on: SK-OV-3 ovarian
SW-620 colon = tested on: SW-620 colon
UACC-257 melanoma = tested on: UACC-257 melanoma
786-0 renal = tested on: 786-0 renal
HCT-116 colon = tested on: HCT-116 colon
T-47D breast = tested on: T-47D breast
HOP-62 NSCLC = tested on: HOP-62 NSCLC
HCC-2998 colon = tested on: HCC-2998 colon

## CCN1CCN(c2ccc(NC(=O)Nc3ccc4c(ccn4-c4ccnc(C(=O)NC)c4)c3)cc2C(F)(F)F)CC1
HT29 colon
  GI50: 1.07 µM
  TGI: 3.22 µM
SF-539 CNS
  GI50: 1.63 µM
  TGI: 3.48 µM
TK-10 renal
  GI50: 2.68 µM
  TGI: 4.82 µM
OVCAR-4 ovarian
  GI50: 2.65 µM
  TGI: 5.86 µM
MDA-MB-435
  GI50: 2.46 µM
  TGI: 4.56 µM
SK-MEL-28 melanoma
  GI50: 2.28 µM
  TGI: 4.37 µM
HCT-15 colon
  GI50: 1.04 µM
  TGI: 3.35 µM
CCRF-CEM leukemia
  GI50: 3.77 µM
  TGI: > 14.3 µM
SN12C renal
  GI50: > 14.3 µM
  TGI: > 14.3 µM
NCI-H226 lung
  GI50: > 14.3 µM
  TGI: > 14.3 µM
OVCAR-5 ovarian
  GI50: 11.4 µM
  TGI: > 14.3 µM
COLO 205 colon
  GI50: > 14.3 µM
  TGI: > 14.3 µM
IGROV1 ovarian
  GI50: 2.67 µM
  TGI: 5.61 µM
HOP-92 NSCLC
  GI50: 1.55 µM
  TGI: 3.44 µM
BT-549 breast
  GI50: > 14.3 µM
  TGI: > 14.3 µM
SF-295 CNS
  GI50: 0.925 µM
  TGI: 2.85 µM
PC-3 prostate
  GI50: 2.34 µM
  TGI: 7.38 µM
RPMI-8226 leukemia
  GI50: 1.57 µM
  TGI: > 14.3 µM
DU-145 prostate
  GI50: 2.59 µM
  TGI: 4.88 µM
A498 renal
  GI50: 13.5 µM
  TGI: > 14.3 µM
SNB-75 CNS
  GI50: 5.22 µM
  TGI: > 14.3 µM
KM12 colon
  GI50: 0.741 µM
  TGI: 2.85 µM
NCI-H522 lung
  GI50: > 14.3 µM
  TGI: > 14.3 µM
A549 NSCLC
  GI50: 2.28 µM
  TGI: 4.5 µM
LOX IMVI melanoma
  GI50: 2.21 µM
  TGI: 4.22 µM
HS 578T breast
  GI50: 2.5 µM
  TGI: 13.7 µM
RXF 393 renal
  GI50: 1.42 µM
  TGI: 3.58 µM
NCI-H23 lung
  GI50: 2.08 µM
  TGI: 4.23 µM
UACC-62 melanoma
  GI50: 2.34 µM
  TGI: 4.55 µM
NCI/ADR-RES ovarian
  GI50: 3.08 µM
  TGI: 7.44 µM
ACHN renal
  GI50: 2.56 µM
  TGI: 4.55 µM
SF-268 CNS
  GI50: 2.53 µM
  TGI: 5.66 µM
MCF7 breast
  GI50: 2.15 µM
  TGI: 5.05 µM
EKVX NSCLC
  GI50: 2.27 µM
  TGI: 4.47 µM
SK-MEL-5 melanoma
  GI50: 2.52 µM
  TGI: 4.56 µM
NCI-H460 lung
  GI50: 2.59 µM
  TGI: 5.03 µM
U251 CNS
  GI50: 1.64 µM
  TGI: 3.53 µM
OVCAR-8 ovarian
  GI50: 2.62 µM
  TGI: 5.49 µM
UO-31 renal
  GI50: 2.23 µM
  TGI: 4.21 µM
CAKI-1 renal
  GI50: 2.68 µM
  TGI: 5.07 µM
MDA-MB-231 breast
  GI50: 2.53 µM
  TGI: 5.01 µM
SR leukemia
  GI50: 0.644 µM
  TGI: 3.22 µM
K-562 leukemia
  GI50: 0.793 µM
  TGI: 4.14 µM
SK-MEL-2 melanoma
  GI50: 12.6 µM
  TGI: > 14.3 µM
SNB-19 CNS
  GI50: 2.36 µM
  TGI: 4.81 µM
MALME-3M melanoma
  GI50: 2.07 µM
  TGI: 4.22 µM
M14 melanoma
  GI50: 2.35 µM
  TGI: 4.36 µM
HL-60(TB) leukemia
  GI50: 2.66 µM
  TGI: 6.11 µM
MOLT-4 leukemia
  GI50: 1.79 µM
  TGI: 9.46 µM
SK-OV-3 ovarian
  GI50: > 14.3 µM
  TGI: > 14.3 µM
SW-620 colon
  GI50: 2.5 µM
  TGI: 4.79 µM
UACC-257 melanoma
  GI50: 2.45 µM
  TGI: 4.68 µM
786-0 renal
  GI50: 1.73 µM
  TGI: 3.63 µM
HCT-116 colon
  GI50: 2 µM
  TGI: 3.88 µM
T-47D breast
  GI50: > 14.3 µM
  TGI: > 14.3 µM
HOP-62 NSCLC
  GI50: 2.13 µM
  TGI: 4.3 µM
HCC-2998 colon
  GI50: 2.47 µM
  TGI: 4.54 µM
